Test results as given in BigSolDB 2.1.

Conditions: in acetic acid

CO[C@H]1/C=C/O[C@@]2(C)Oc3c(C)c(O)c4c(O)c(c(/C=N/N5CCN(C6CCCC6)CC5)c(O)c4c3C2=O)NC(=O)/C(C)=C\C=C\[C@H](C)[C@H](O)[C@@H](C)[C@@H](O)[C@@H](C)[C@H](OC(C)=O)[C@@H]1C
Conditions | solubility (mole fraction)
278.15 K | 0.0523
283.15 K | 0.0558
288.15 K | 0.0595
293.15 K | 0.0632
297.15 K | 0.067
303.15 K | 0.0707
308.15 K | 0.0755
313.15 K | 0.0805
318.15 K | 0.0858
323.15 K | 0.0913
